Experimental data reported in ChEMBL document CHEMBL1201862, “PubChem BioAssay data set” (2004).
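Each compound was tested at five concentrations against cells in 96-well plates for 48 hours. GI50 marks 50% less growth.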 Active and inactive are the calls of the source. No stated cut-off is given here; in the data, active = GI50 up to about 1.1 µM and inactive = higher.

Experiments:
Assay in all cases: growth of human tumour cells (NCI), 48 h
[1] = system: COLO 205
[2] = system: SW-620
[3] = system: SK-MEL-28
[4] = system: OVCAR-4
[5] = system: NCI-H226
[6] = system: NCI-H23
[7] = system: OVCAR-3
[8] = system: SK-OV-3
[9] = system: MOLT-4
[10] = system: HOP-92
[11] = system: K562
[12] = system: RPMI-8226
[13] = system: SN12C
[14] = system: UO-31
[15] = system: SF-268
[16] = system: CCRF-CEM
[17] = system: TK-10
[18] = system: SK-MEL-2

Measured: GI50

COC(=O)N/N=C(\c1nc2ccc(Cl)cc2nc1O)C(O)c1ccc([N+](=O)[O-])cc1 (stereo unspecified)
inactive: [1] > 100 µM | [2] > 100 µM | [3] > 100 µM | [4] > 100 µM | [5] > 100 µM | [6] > 100 µM | [7] > 100 µM | [8] > 100 µM | [9] 98.4 µM | [10] > 100 µM | [11] > 100 µM | [12] > 100 µM | [13] > 100 µM | [14] > 100 µM | [15] > 100 µM | [16] 89.7 µM

COc1ccc(/C=C/C(=O)c2sc(-c3cccnc3)nc2C)cc1
inactive: [1] 48.3 µM | [2] 32.8 µM | [3] 94 µM | [5] 23.8 µM | [6] 75.5 µM | [7] 24.2 µM | [17] 38.6 µM | [8] 82.6 µM | [9] 16.7 µM | [10] 81.5 µM | [11] 21.8 µM | [12] 2.9 µM | [13] 64.6 µM | [14] 41.7 µM | [18] 38.4 µM | [15] 74.6 µM | [16] 28.6 µM

Cc1ccccc1NC(=O)C(=O)C(C#N)c1ccccc1C (stereo unspecified)
inactive: [1] 46.8 µM | [2] 19.5 µM | [3] > 100 µM | [5] > 100 µM | [6] > 100 µM | [7] > 100 µM | [17] > 100 µM | [8] > 100 µM | [9] > 100 µM | [10] > 100 µM | [11] 21.9 µM | [12] > 100 µM | [13] > 100 µM | [14] > 100 µM | [18] > 100 µM | [15] > 100 µM | [16] 30.4 µM

Cc1cc(=O)oc2c(C)c(OCCCOc3ccc4c(C)cc(=O)oc4c3C)ccc12
inactive: [2] > 100 µM | [3] > 100 µM | [6] > 100 µM | [7] > 100 µM | [17] > 100 µM | [8] > 100 µM | [9] > 100 µM | [10] 65.9 µM | [11] > 100 µM | [12] > 100 µM | [14] > 100 µM | [18] > 100 µM | [15] > 100 µM | [16] > 100 µM

O=C(O)[C@H](NS(=O)(=O)c1ccc2ccccc2c1)c1ccccc1
inactive: [1] > 100 µM | [3] > 100 µM | [4] > 100 µM | [6] > 100 µM | [8] > 100 µM | [9] > 100 µM | [10] 45.3 µM | [11] > 100 µM | [12] > 100 µM | [13] > 100 µM | [14] > 100 µM | [18] > 100 µM | [15] > 100 µM | [16] > 100 µM

Cc1c2c(cc3c(=O)ccn(CCN(C)C)c13)c(=O)ccn2CCN(C)C
inactive: [1] 11.5 µM | [2] 3.81 µM | [3] 20.4 µM | [4] 4.4 µM | [5] 14 µM | [6] 14.9 µM | [7] 14.2 µM | [17] 11.7 µM | [8] 8.61 µM | [9] 3.96 µM | [10] 6.1 µM | [11] 17.8 µM | [13] 11.2 µM | [14] 10.3 µM | [18] 21 µM | [15] 6.93 µM | [16] 5.87 µM

O=CC[C@H]1CCc2ccccc2C12CCC(=O)CC2
inactive: [1] 94.2 µM | [2] 80.2 µM | [4] > 100 µM | [5] 51.4 µM | [7] > 100 µM | [8] > 100 µM | [9] 30.5 µM | [10] 68.4 µM | [11] 28.2 µM | [12] 35.4 µM | [13] 67.8 µM | [14] 33.7 µM | [18] > 100 µM | [15] 76.6 µM | [16] 39.8 µM

COc1ccc(CCc2nccn2C)cc1OC
inactive: [1] > 100 µM | [2] > 100 µM | [3] > 100 µM | [4] > 100 µM | [6] > 100 µM | [7] > 100 µM | [17] > 100 µM | [8] > 100 µM | [9] > 100 µM | [10] > 100 µM | [11] > 100 µM | [12] > 100 µM | [13] > 100 µM | [14] > 100 µM | [18] > 100 µM | [15] > 100 µM | [16] > 100 µM

CC1(C)Oc2ccccc2N2O[C@@H]3C(=O)N(c4ccccc4)C(=O)[C@@H]3C21c1ccccc1 (stereo partly specified)
inactive: [1] 39.1 µM | [2] 34.4 µM | [3] 29.2 µM | [4] 17.9 µM | [5] 55.3 µM | [6] 97.7 µM | [7] 21.2 µM | [17] 17.9 µM | [8] 22.1 µM | [9] 27.1 µM | [11] 37.4 µM | [12] 37.8 µM | [14] 66.1 µM | [18] 23.1 µM | [15] 33.9 µM | [16] 27.7 µM

N#Cc1c(N)c(C(=O)O)nn(-c2cccc(C(F)(F)F)c2)c1=O
inactive: [1] > 100 µM | [2] > 100 µM | [3] > 100 µM | [6] > 100 µM | [7] > 100 µM | [17] > 100 µM | [8] > 100 µM | [9] > 100 µM | [10] 43.4 µM | [11] 64.7 µM | [12] 88.9 µM | [13] > 100 µM | [14] 76.7 µM | [18] > 100 µM | [15] > 100 µM | [16] > 100 µM

O=S1OC2(c3ccccc3-c3ccccc32)c2ccccc21 (stereo unspecified)
inactive: [1] > 100 µM | [2] > 100 µM | [3] > 100 µM | [4] > 100 µM | [5] > 100 µM | [6] > 100 µM | [7] > 100 µM | [17] > 100 µM | [8] > 100 µM | [9] 52.4 µM | [11] > 100 µM | [12] > 100 µM | [13] > 100 µM | [14] > 100 µM | [16] 72.8 µM

CC(C)(C)OC(=O)C1=C(O)C(C(=O)OC(C)(C)C)C23CCCCC12C(C(=O)OC(C)(C)C)C(O)=C3C(=O)OC(C)(C)C (stereo unspecified)
inactive: [1] > 100 µM | [2] > 100 µM | [4] > 100 µM | [5] > 100 µM | [6] > 100 µM | [7] > 100 µM | [17] > 100 µM | [8] > 100 µM | [9] > 100 µM | [10] > 100 µM | [11] > 100 µM | [12] > 100 µM | [13] > 100 µM | [14] > 100 µM | [18] > 100 µM | [15] > 100 µM | [16] > 100 µM
